Results as given in patent US12686673B2 (Blueprint Medicines Corporation, priority 2020, dated 2026).
Where a name gives a salt, the structure may show the parent alone. Read-outs that look alike come from different tables or passages of the source.

How the values were obtained:
Format in all cases: cell-based
[1] = target: EGFR(D770_N771insSVD) expressing Ba/F3 stable cell line (Homo sapiens, UniProt P00533, DUP768-770, cells depend on it); test: Cellular proliferation (Alamar Blue) assay, EGFR D770_N771insSVD Ba/F3; conditions: 72 hr, read-out: D770 IC50
Chain of EGFR(D770_N771insSVD) expressing Ba/F3 stable cell line (P00533 with tags, fused parts or gaps DUP768-770): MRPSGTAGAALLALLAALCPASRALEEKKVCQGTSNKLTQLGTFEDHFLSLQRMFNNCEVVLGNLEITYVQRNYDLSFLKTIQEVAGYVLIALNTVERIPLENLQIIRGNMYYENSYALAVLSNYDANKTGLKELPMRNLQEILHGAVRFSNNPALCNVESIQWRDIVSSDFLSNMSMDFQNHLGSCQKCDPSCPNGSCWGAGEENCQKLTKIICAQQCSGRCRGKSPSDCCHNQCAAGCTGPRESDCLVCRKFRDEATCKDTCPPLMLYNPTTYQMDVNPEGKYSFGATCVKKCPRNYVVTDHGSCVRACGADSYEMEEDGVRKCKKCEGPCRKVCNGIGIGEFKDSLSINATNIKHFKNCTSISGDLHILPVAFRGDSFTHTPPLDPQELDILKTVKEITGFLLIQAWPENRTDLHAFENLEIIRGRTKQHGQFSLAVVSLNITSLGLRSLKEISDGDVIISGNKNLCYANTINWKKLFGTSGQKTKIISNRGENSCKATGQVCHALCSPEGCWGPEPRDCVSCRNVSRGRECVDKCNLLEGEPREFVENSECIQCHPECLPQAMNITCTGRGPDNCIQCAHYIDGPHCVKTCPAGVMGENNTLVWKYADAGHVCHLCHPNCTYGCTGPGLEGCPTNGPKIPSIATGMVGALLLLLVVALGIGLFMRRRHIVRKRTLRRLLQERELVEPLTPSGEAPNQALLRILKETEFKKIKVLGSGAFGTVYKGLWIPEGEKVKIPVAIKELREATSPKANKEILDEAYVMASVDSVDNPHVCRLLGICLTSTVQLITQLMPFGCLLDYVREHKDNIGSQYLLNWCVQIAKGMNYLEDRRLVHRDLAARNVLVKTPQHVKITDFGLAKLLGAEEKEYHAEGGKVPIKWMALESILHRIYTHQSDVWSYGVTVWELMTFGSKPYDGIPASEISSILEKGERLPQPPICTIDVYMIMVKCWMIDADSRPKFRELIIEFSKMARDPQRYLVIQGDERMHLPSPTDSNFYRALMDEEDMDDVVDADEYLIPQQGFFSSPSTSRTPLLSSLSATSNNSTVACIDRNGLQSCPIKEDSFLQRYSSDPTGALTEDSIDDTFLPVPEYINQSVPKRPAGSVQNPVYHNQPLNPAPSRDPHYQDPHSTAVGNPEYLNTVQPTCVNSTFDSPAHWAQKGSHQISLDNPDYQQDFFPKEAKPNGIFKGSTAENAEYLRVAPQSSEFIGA
In short: (§1)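 Proliferation of mutant-dependent Ba/F3 lines is measured by Alamar Blue reduction over 3 hours, following a 72 hr incubation with test compound spanning 10-0.0005 μM final in threefold dilutions. Cells go in at 15,000 per well in RPMI containing 10% FBS the day before dosing.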

A431 cells = test: Cellular proliferation (Alamar Blue) assay, A431; conditions: Homo sapiens
[2] = target: EGFR (H773insNPH) expressing Ba/F3 stable cell line (Homo sapiens, UniProt P00533, DUP771-773, cells depend on it); test: Cellular proliferation (Alamar Blue) assay, EGFR H773insNPH Ba/F3; conditions: 72 hr, read-out: NPH IC50
Chain of EGFR (H773insNPH) expressing Ba/F3 stable cell line (P00533 with tags, fused parts or gaps DUP771-773): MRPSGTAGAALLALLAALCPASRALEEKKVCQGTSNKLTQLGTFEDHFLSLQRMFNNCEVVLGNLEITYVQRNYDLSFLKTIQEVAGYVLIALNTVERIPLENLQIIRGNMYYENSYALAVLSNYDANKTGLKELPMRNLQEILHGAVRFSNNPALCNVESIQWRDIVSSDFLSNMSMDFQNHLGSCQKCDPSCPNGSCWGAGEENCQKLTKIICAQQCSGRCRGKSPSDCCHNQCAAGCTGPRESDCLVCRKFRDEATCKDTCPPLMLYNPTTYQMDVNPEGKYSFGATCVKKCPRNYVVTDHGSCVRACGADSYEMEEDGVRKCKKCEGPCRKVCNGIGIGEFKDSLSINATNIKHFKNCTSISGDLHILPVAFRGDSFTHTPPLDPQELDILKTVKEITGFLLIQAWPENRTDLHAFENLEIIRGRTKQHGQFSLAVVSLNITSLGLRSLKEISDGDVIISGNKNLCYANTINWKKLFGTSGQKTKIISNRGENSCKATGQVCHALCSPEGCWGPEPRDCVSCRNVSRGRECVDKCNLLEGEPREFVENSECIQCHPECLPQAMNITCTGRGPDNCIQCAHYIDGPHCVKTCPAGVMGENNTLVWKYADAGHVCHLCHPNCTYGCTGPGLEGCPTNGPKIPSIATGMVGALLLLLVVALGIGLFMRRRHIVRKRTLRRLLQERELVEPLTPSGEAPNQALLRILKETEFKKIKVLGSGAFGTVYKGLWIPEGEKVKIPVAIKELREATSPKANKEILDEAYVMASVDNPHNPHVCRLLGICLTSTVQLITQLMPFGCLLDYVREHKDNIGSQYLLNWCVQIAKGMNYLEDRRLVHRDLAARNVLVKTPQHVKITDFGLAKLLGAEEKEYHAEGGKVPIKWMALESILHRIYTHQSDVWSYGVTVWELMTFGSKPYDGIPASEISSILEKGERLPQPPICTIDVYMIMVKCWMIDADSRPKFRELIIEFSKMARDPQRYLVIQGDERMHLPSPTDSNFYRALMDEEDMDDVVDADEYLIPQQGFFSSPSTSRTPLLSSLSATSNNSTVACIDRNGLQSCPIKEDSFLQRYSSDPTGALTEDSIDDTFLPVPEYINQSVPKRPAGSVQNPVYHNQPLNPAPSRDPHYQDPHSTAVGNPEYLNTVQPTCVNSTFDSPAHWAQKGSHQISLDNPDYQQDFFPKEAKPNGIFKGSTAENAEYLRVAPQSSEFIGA
In short: as §1

[3] = target: EGFR (A767_dupASV) expressing Ba/F3 stable cell line (Homo sapiens, UniProt P00533, DUP767-769, cells depend on it); test: Cellular proliferation (Alamar Blue) assay, EGFR A767_dupASV Ba/F3; conditions: 72 hr, read-out: A767 IC50
Chain of EGFR (A767_dupASV) expressing Ba/F3 stable cell line (P00533 with tags, fused parts or gaps DUP767-769): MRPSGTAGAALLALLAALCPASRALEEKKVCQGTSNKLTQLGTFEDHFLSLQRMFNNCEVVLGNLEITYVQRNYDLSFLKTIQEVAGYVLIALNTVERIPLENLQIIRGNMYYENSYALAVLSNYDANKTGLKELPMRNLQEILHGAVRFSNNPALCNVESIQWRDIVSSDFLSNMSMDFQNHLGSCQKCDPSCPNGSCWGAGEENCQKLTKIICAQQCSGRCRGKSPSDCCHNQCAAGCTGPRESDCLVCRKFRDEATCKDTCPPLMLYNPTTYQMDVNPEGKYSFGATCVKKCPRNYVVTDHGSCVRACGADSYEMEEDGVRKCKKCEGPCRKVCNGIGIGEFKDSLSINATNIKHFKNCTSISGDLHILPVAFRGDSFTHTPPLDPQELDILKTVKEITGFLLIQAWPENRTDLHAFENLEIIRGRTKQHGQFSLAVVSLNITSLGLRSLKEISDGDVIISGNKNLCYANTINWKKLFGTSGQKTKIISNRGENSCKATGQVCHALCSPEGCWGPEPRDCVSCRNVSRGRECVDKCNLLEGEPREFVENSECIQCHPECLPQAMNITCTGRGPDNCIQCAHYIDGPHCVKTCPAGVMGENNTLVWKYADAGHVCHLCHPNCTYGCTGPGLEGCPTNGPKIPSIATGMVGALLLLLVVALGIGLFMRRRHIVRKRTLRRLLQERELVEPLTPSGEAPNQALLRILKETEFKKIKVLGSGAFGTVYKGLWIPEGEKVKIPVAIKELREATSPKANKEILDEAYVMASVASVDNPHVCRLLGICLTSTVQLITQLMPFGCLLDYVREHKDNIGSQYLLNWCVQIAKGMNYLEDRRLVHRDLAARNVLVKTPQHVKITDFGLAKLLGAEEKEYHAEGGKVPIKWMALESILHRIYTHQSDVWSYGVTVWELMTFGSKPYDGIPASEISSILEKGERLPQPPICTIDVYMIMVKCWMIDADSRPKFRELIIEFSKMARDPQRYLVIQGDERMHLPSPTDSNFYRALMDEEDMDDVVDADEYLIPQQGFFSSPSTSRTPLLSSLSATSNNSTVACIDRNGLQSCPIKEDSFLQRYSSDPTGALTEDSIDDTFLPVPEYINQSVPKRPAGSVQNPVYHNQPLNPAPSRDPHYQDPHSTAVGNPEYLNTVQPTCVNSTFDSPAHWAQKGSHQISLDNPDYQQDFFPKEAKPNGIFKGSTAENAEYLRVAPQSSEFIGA
In short: as §1

[4] = target: HER2 (A775_G776insYVMA) expressing Ba/F3 stable cell line (Homo sapiens, UniProt P04626, DUP772-775, cells depend on it); test: Cellular proliferation (Alamar Blue) assay, HER2 A775_G776insYVMA Ba/F3; conditions: 72 hr, read-out: YVMA IC50
Chain of HER2 (A775_G776insYVMA) expressing Ba/F3 stable cell line (P04626 with tags, fused parts or gaps DUP772-775): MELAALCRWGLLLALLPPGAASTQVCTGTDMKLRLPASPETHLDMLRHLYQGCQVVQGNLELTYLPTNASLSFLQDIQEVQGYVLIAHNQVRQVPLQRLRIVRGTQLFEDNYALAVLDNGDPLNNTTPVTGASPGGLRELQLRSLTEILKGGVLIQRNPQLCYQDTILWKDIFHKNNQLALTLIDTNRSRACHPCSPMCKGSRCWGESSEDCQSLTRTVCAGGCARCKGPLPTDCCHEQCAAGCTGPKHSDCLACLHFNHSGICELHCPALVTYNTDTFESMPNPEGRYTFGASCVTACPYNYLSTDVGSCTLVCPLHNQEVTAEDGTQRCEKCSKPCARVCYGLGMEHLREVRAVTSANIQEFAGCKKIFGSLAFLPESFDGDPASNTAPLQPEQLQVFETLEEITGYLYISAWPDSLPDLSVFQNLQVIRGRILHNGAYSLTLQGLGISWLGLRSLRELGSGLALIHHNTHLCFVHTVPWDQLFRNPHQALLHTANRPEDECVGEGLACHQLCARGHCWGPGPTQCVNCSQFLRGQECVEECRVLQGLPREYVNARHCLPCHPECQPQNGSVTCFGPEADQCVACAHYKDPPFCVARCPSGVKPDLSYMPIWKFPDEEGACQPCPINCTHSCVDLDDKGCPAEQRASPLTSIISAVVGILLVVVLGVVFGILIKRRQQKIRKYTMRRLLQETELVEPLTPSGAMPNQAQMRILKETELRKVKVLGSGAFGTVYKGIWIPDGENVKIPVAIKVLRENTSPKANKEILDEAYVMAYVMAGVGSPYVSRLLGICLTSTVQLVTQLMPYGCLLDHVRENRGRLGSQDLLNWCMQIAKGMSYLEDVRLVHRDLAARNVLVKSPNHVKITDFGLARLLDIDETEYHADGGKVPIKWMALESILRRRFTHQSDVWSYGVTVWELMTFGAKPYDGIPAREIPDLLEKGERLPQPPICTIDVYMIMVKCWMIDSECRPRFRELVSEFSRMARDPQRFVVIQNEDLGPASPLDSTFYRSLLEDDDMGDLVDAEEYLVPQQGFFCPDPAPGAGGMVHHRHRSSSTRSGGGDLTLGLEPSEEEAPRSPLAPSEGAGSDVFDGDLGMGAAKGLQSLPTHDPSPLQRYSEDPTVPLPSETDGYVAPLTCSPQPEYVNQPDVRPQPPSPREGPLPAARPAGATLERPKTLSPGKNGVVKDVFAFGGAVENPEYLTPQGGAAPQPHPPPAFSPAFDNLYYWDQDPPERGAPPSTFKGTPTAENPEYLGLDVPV
In short: as §1

[5] = A-431, A431 cells, Alamar Blue, 72 hr, read-out: A431 IC50

SMILES	GI50 [1] [nM]	IC50 (A431 cells; [5]) [nM]	GI50 [2] [nM]	GI50 [3] [nM]	GI50 [4] [nM]	IC50 (A431 cells; A-431, 72 h, read-out: A431 IC50 (nM)) [nM]
C=CC(=O)Nc1ccc(F)c(Nc2nc(Nc3cnn(C)c3)ncc2-c2ccnc(C(F)(F)F)c2)c1 [Compound 83, N-(4-fluoro-3-((2-((1-methyl-1H-pyrazol-4-yl)amino)-5-(2-(trifluoromethyl)pyridin-4-yl)pyrimidin-4-yl)amino)phenyl)acrylamide]	61	53	51	88	255	–
C=CC(=O)Nc1ccc(F)c(Nc2nc(Nc3cnn(C)c3)ncc2-c2cccnc2)c1 [Compound 84, N-(4-fluoro-3-((2-((1-methyl-1H-pyrazol-4-yl)amino)-5-(pyridin-3-yl)pyrimidin-4-yl)amino)phenyl)acrylamide]	64	–	50	83	119	191
C=CC(=O)Nc1ccc(F)c(Nc2nc(Nc3cnn(C4CCN(C)CC4)c3)ncc2-c2ccc(C(F)(F)F)cc2)c1 [Compound 85, N-(4-fluoro-3-((2-((1-(1-methylpiperidin-4-yl)-1H-pyrazol-4-yl)amino)-5-(4-(trifluoromethyl)phenyl)pyrimidin-4-yl)amino)phenyl)acrylamide]	109	5440	119	249	378	–
C=CC(=O)Nc1ccc(F)c(Nc2nc(Nc3cn(C)nc3F)ncc2-c2ccc(C(F)(F)F)cc2)c1 [Compound 87, N-(4-fluoro-3-((2-((3-fluoro-1-methyl-1H-pyrazol-4-yl)amino)-5-(4-(trifluoromethyl)phenyl)pyrimidin-4-yl)amino)phenyl)acrylamide]	171	97	234	239	413	–
C=CC(=O)Nc1ccc(F)c(Nc2nc(Nc3cnn(C)c3)ncc2-c2cccc(F)c2)c1 [Compound 88, N-(4-fluoro-3-((5-(3-fluorophenyl)-2-((1-methyl-1H-pyrazol-4-yl)amino)pyrimidin-4-yl)amino)phenyl)acrylamide]	35	929	49	48	198	–
C=CC(=O)Nc1ccc(F)c(Nc2nc(Nc3cnn(C)c3)ncc2-c2cccc(C(F)(F)F)c2)c1 [Compound 89, N-[4-fluoro-3-({2-[(1-methyl-1H-pyrazol-4-yl)amino]-5-[3-(trifluoromethyl)phenyl]pyrimidin-4-yl}amino)phenyl]prop-2-enamide]	101	84	58	106	665	–
C=CC(=O)Nc1ccc(F)c(Nc2nc(Nc3cnn(C)c3)ncc2-c2ccccc2F)c1 [Compound 90, N-(4-fluoro-3-((5-(2-fluorophenyl)-2-((1-methyl-1H-pyrazol-4-yl)amino)pyrimidin-4-yl)amino)phenyl)acrylamide]	103	320	103	237	358	–
C=CC(=O)Nc1ccc(F)c(Nc2nc(Nc3cnn(C)c3)ncc2-c2ccc(OC)cc2)c1 [Compound 91, N-(4-fluoro-3-((5-(4-methoxyphenyl)-2-((1-methyl-1H-pyrazol-4-yl)amino)pyrimidin-4-yl)amino)phenyl)acrylamide]	62	950	91	108	479	–
C=CC(=O)Nc1ccc(F)c(Nc2nc(Nc3cnn(C)c3)ncc2-c2ccc(OC(F)(F)F)cc2)c1 [Compound 92, N-(4-fluoro-3-((2-((1-methyl-1H-pyrazol-4-yl)amino)-5-(4-(trifluoromethoxy)phenyl)pyrimidin-4-yl)amino)phenyl)acrylamide]	102	133	89	75	612	–
C=CC(=O)Nc1ccc(F)c(Nc2nc(Nc3cnn(C)c3)ncc2-c2ccccc2)c1 [Compound 93, N-(4-fluoro-3-((2-((1-methyl-1H-pyrazol-4-yl)amino)-5-phenylpyrimidin-4-yl)amino)phenyl)acrylamide]	121	> 10000	148	315	465	–
C=CC(=O)Nc1ccc(F)c(Nc2nc(Nc3cnn(C)c3)ncc2-c2ccc(N3CCOCC3)cc2)c1 [Compound 94, N-(4-fluoro-3-((2-((1-methyl-1H-pyrazol-4-yl)amino)-5-(4-morpholinophenyl)pyrimidin-4-yl)amino)phenyl)acrylamide]	542	> 10000	448	109	1270	–
C=CC(=O)Nc1ccc(F)c(Nc2nc(Nc3cnn(C)c3)ncc2-c2cncc(OC(F)F)c2)c1 [Compound 95, N-(3-((5-(5-(difluoromethoxy)pyridin-3-yl)-2-((1-methyl-1H-pyrazol-4-yl)amino)pyrimidin-4-yl)amino)-4-fluorophenyl)acrylamide]	38	102	45	27	101	–
C=CC(=O)Nc1ccc(F)c(Nc2nc(Nc3cnn(C)c3)ncc2-c2ccc(C(F)F)cc2)c1 [Compound 99, N-(3-((5-(4-(difluoromethyl)phenyl)-2-((1-methyl-1H-pyrazol-4-yl)amino)pyrimidin-4-yl)amino)-4-fluorophenyl)acrylamide]	37	67	75	96	171	–
C=CC(=O)Nc1ccc(F)c(Nc2nc(Nc3cnn(C)c3)ncc2-c2ccc(F)nc2)c1 [Compound 100, N-(4-fluoro-3-((5-(6-fluoropyridin-3-yl)-2-((1-methyl-1H-pyrazol-4-yl)amino)pyrimidin-4-yl)amino)phenyl)acrylamide]	38	472	53	72	203	–
C=CC(=O)Nc1ccc(F)c(Nc2nc(Nc3cnn(C)c3)ncc2-c2ccc(N(C)C)cc2)c1 [Compound 103, N-(3-((5-(4-(dimethylamino)phenyl)-2-((1-methyl-1H-pyrazol-4-yl)amino)pyrimidin-4-yl)amino)-4-fluorophenyl)acrylamide]	157	493	281	287	461	–
C=CC(=O)Nc1cccc(Oc2nc(Nc3cnn(C)c3)ncc2-c2cncc(C(F)(F)F)c2)c1 [Compound 104, N-(3-((2-((1-methyl-1H-pyrazol-4-yl)amino)-5-(5-(trifluoromethyl)pyridin-3-yl)pyrimidin-4-yl)oxy)phenyl)acrylamide]	107	1120	101	104	115	–
C=CC(=O)Nc1cccc(Oc2nc(Nc3cnn(C)c3)ncc2-c2ccc(C(F)F)cc2)c1 [Compound 105, N-(3-((5-(4-(difluoromethyl)phenyl)-2-((1-methyl-1H-pyrazol-4-yl)amino)pyrimidin-4-yl)oxy)phenyl)acrylamide]	37	171	75	49	105	–
C=CC(=O)Nc1ccc(F)c(Nc2nc(Nc3cnn(C)c3)ncc2-c2ccc(C(F)F)nc2)c1 [Compound 106, N-(3-((5-(6-(difluoromethyl)pyridin-3-yl)-2-((1-methyl-1H-pyrazol-4-yl)amino)pyrimidin-4-yl)amino)-4-fluorophenyl)acrylamide]	16	94	25	35	38	–
C=CC(=O)Nc1cccc(Oc2nc(Nc3cnn(C)c3)ncc2-c2ccc(C(F)(F)F)nc2)c1 [Compound 108, N-(3-((2-((1-methyl-1H-pyrazol-4-yl)amino)-5-(6-(trifluoromethyl)pyridin-3-yl)pyrimidin-4-yl)oxy)phenyl)acrylamide]	104	341	294	56	300	–
C=CC(=O)Nc1cccc(Oc2nc(Nc3cnn(C)c3)ncc2-c2ccc(F)nc2)c1 [Compound 109, N-(3-((5-(6-fluoropyridin-3-yl)-2-((1-methyl-1H-pyrazol-4-yl)amino)pyrimidin-4-yl)oxy)phenyl)acrylamide]	100	613	112	53	344	–
C=CC(=O)Nc1cccc(Nc2nc(Nc3cnn(C)c3)ncc2-c2ccc(C(F)(F)F)cc2)c1 [Compound 111, N-(3-((2-((1-methyl-1H-pyrazol-4-yl)amino)-5-(4-(trifluoromethyl)phenyl)pyrimidin-4-yl)amino)phenyl)acrylamide]	48	27	103	41	138	–
C=CC(=O)Nc1ccc(F)c(Nc2nc(Nc3cn(C)nc3Cl)ncc2-c2ccc(C(F)(F)F)cc2)c1 [Compound 112, N-(3-((2-((3-chloro-1-methyl-1H-pyrazol-4-yl)amino)-5-(4-(trifluoromethyl)phenyl)pyrimidin-4-yl)amino)-4-fluorophenyl)acrylamide trifluoroacetate]	93	88	138	80	288	–
